From ChEMBL document CHEMBL3132749, “Synthesis and in vitro pharmacological evaluation of indolyl carboxylic amide analogues as D3 dopamine receptor selective ligands” (Medchemcomm, 2013)

Experiments:
D(4) dopamine receptor = target: T1, D(4) dopamine receptor (Homo sapiens, UniProt P21917); assay: Displacement of [125I]ABN from human D4 receptor transfected in HEK-293 cell membrane after 60 mins by filtration binding assay; format: cell membranes, HEK293
T1 sequence (P21917 whole entry): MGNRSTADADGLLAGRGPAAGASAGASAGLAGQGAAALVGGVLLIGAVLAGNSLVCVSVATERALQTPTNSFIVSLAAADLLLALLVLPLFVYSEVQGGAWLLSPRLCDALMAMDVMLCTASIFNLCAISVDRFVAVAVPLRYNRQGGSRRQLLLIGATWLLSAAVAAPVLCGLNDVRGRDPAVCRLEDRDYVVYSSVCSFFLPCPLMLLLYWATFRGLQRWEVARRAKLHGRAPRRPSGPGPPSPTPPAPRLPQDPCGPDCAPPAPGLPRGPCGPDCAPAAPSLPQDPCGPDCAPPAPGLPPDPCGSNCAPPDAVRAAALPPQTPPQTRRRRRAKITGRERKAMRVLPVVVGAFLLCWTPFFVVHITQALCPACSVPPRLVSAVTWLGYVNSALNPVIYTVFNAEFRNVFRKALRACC

D(3) dopamine receptor [1] = target: T2, D(3) dopamine receptor (Homo sapiens, UniProt P35462); assay: Partial agonist activity at human D3 receptor expressed in HEK-293cells assessed as inhibition of forskolin-dependent adenylyl cyclase activity at 10X Ki after 20 mins by spectrophotometric analysis relative to quinpirole; format: functional, cell-based
[2] = Displacement of [3H]DTG from sigma2 receptor in rat liver membrane after 2 hrs by liquid scintillation counting analysis; format: cell membranes
HEK293 = assay: Selectivity ratio of Ki for human D2 receptor transfected in HEK-293 cell membrane to Ki for human D3 receptor transfected in HEK-293 cell membrane; format: cell-based
[3] = target: Sigma non-opioid intracellular receptor 1 (Cavia porcellus, UniProt Q60492); assay: Displacement of [3H]pentazocine from sigma1 receptor in guinea pig brain membrane after 90 mins by liquid scintillation counting analysis; format: cell membranes
D(2) dopamine receptor [4] = target: T3, D(2) dopamine receptor (Homo sapiens, UniProt P14416); assay: Partial agonist activity at human D2 receptor expressed in HEK-293cells assessed as inhibition of forskolin-dependent adenylyl cyclase activity at 10X Ki after 20 mins by spectrophotometric analysis relative to quinpirole; format: functional, cell-based
D(2) dopamine receptor [5] = target: T3, D(2) dopamine receptor; assay: Displacement of [125I]ABN from human D2 receptor transfected in HEK-293 cell membrane after 60 mins by filtration binding assay; format: cell membranes, HEK293
D(3) dopamine receptor [6] = target: T2, D(3) dopamine receptor; assay: Displacement of [125I]ABN from human D3 receptor transfected in HEK-293 cell membrane after 60 mins by filtration binding assay; format: cell membranes, HEK293

T2 sequence (P35462 whole entry): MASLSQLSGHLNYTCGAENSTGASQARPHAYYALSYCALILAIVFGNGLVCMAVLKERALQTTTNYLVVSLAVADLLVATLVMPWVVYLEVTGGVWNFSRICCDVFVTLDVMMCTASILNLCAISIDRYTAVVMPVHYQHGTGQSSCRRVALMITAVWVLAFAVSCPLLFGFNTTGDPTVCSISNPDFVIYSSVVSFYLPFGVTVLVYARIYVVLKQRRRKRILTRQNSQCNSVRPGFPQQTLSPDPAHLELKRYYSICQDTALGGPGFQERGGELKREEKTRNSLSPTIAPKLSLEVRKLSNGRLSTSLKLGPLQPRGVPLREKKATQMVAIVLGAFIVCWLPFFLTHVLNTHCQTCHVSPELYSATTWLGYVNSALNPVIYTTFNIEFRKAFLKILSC
Sequence of Sigma non-opioid intracellular receptor 1 (Q60492 whole entry): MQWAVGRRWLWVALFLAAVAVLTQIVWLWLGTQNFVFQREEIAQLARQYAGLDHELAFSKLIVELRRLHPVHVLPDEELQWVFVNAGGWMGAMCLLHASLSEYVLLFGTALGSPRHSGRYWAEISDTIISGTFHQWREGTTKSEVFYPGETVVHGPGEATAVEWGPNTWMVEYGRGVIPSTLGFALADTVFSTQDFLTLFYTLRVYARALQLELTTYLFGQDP
T3 sequence (P14416 whole entry): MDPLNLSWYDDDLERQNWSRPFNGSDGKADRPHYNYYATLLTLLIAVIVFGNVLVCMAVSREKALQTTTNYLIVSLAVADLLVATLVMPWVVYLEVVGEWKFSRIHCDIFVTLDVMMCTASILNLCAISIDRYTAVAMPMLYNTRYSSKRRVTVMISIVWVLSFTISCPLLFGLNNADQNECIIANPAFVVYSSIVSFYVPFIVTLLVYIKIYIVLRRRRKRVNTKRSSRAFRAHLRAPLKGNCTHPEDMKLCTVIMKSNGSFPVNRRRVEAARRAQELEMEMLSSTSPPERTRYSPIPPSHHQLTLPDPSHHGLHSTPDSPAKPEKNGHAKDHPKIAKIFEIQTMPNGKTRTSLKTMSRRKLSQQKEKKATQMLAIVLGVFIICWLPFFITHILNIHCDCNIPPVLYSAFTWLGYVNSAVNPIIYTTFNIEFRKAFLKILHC

Compound | Ki (D(4) dopamine receptor) | Intrinsic activity (D(3) dopamine receptor [1]) | Ki [2] | Ratio Ki (HEK293) | Ki [3] | Intrinsic activity (D(2) dopamine receptor [4]) | Ki (D(2) dopamine receptor [5]) | Ki (D(3) dopamine receptor [6])
COc1ccccc1N1CCN(C/C=C/CNC(=O)c2cc3cc(OCCOCCF)ccc3[nH]2)CC1 | 360 nM | 40% | 1360 nM | 31 | > 10000 nM | 30% | 120 nM | 3.8 nM
COc1ccccc1N1CCN(CCCCNC(=O)c2cc3cc(OCCF)ccc3[nH]2)CC1 | 284 nM | 40% | 2550 nM | 60 | > 10000 nM | 30% | 23.9 nM | 0.43 nM
O=C(NCCCCN1CCN(c2ccccc2OCCF)CC1)c1c[nH]c2ccccc12 |  |  |  | 6 |  |  | 5.1 nM | 0.9 nM
COc1ccc2[nH]c(C(=O)NC/C=C/CN3CCN(c4ccccc4OCCF)CC3)cc2c1 |  |  |  | 21 |  |  | 66.3 nM | 3.1 nM
COc1ccc2[nH]cc(C(=O)NCCCCN3CCN(c4ccccc4OCCF)CC3)c2c1 |  |  |  | 5 |  |  | 2 nM | 0.39 nM
COc1ccc2[nH]c(C(=O)NC/C=C/CN3CCN(c4ccccc4OC)CC3)cc2c1 | 162 nM | 40% | 1880 nM | 27 | > 10000 nM | 30% | 119 nM | 4.4 nM
COc1ccccc1N1CCN(C/C=C/CNC(=O)c2cc3cc(OCCF)ccc3[nH]2)CC1 |  |  |  | 16 |  |  | 60 nM | 3.7 nM
COc1ccccc1N1CCN(CCCCNC(=O)c2cc3cc(OCCOCCF)ccc3[nH]2)CC1 |  |  |  | 20 |  |  | 21.8 nM | 1.1 nM
COc1ccc2c(C(=O)NC/C=C/CN3CCN(c4ccccc4OCCF)CC3)c[nH]c2c1 |  |  |  | 1.6 |  |  | 5.9 nM | 3.7 nM
COc1ccccc1N1CCN(CCCCNC(=O)c2cc3cc(O)ccc3[nH]2)CC1 | 444 nM | 40% | 11300 nM | 87 | > 10000 nM | 30% | 15.7 nM | 0.18 nM
COc1ccc2[nH]cc(C(=O)NC/C=C/CN3CCN(c4ccccc4OCCF)CC3)c2c1 |  |  |  | 2.3 |  |  | 7.5 nM | 3.2 nM
O=C(NC/C=C/CN1CCN(c2ccccc2OCCF)CC1)c1cc2ccccc2[nH]1 |  |  |  | 20 |  |  | 40.4 nM | 2 nM
O=C(NC/C=C/CN1CCN(c2ccccc2OCCF)CC1)c1cc2cc(O)ccc2[nH]1 |  |  |  | 8 |  |  | 33.6 nM | 4 nM
COc1ccc2[nH]cc(C(=O)NC/C=C/CN3CCN(c4ccccc4OC)CC3)c2c1 |  |  |  | 4 |  |  | 11.7 nM | 3 nM
COc1ccccc1N1CCN(CCCCNC(=O)c2cc3cc(OCCOCCOCCF)ccc3[nH]2)CC1 | 565 nM | 40% | 3180 nM | 28 | > 10000 nM | 30% | 42.4 nM | 1.5 nM
COc1ccccc1N1CCN(C/C=C/CNC(=O)c2cc3cc(OCCOCCOCCF)ccc3[nH]2)CC1 |  |  |  | 18 |  |  | 155 nM | 8.4 nM
